Here are results for 23 compounds from patent publication US6492365B1, “Microsomal triglyceride transfer protein” (Bristol-Myers Squibb Company, priority 1992, dated 2002).

Molecules are shown by their SMILES. Counter-ions that a name gives are not always drawn.

The compound `O=C1c2ccccc2CN1C1CCN(CC=C(c2ccccc2)c2ccccc2)CC1` (as salt: hydrochloride) [Example 11, 2-[1-(3,3-Diphenyl-2-propenyl)-4-piperidinyl]-2,3-dihydro-1H-isoindol-1-one, monohydrochloride] gave a melting point of 231 to 235 °C.

Consider `O=C1c2ccccc2CN1C1CCN(Cc2ccccc2)CC1` (as salt: hydrochloride) [Example 13, 2,3-Dihydro-2-[1-(phenylmethyl)-4-piperidinyl]-1H-isoindol-1-one, monohydrochloride], for which the melting point lay in the range of 271 to 274 °C. The value for `O=C1c2ccccc2CN1C1CCN(CCCc2ccccc2)CC1` (as salt: hydrochloride) [Example 14, 2,3-Dihydro-2-[1-(3-phenylpropyl)-4-piperidinyl]-1H-isoindol-1-one, monohydrochloride] was 229 to 231 °C; that for `CCCCC(CCCC)CCN1CCC(N2Cc3ccccc3C2=O)CC1` (as salt: hydrochloride) [Example 17, 2-[1-(3-Butylheptyl)-4-piperidinyl]-2,3-dihydro-1H-isoindol-1-one, monohydrochloride] was 185 to 187 °C; that for `O=C1c2ccccc2CN1C1CCN(C/C=C/c2ccccc2Oc2ccccc2)CC1` (as salt: hydrochloride) [Example 20, (E)-2,3-Dihydro-2-[1-[3-(2-phenoxyphenyl)-2-propenyl]-4-piperidinyl]-1H-isoindol-1-one, monohydrochloride] was 215 to 218 °C. The value for `COc1ccccc1CCCN1CCC(N2Cc3ccccc3C2=O)CC1` (as salt: hydrochloride) [Example 21, 2,3-Dihydro-2-[1-[3-(2-methoxyphenyl)propyl]-4-piperidinyl]-1H-isoindol-1-one, monohydrochloride] was 191 to 195 °C; that for `O=C1CC(CN2CCN(c3ccccc3)CC2)Cc2ccccc21` (centres unmarked) (as salt: hydrochloride) [Example 23, 3,4-Dihydro-3-[(4-phenyl-1-piperazinyl)methyl]-1-(2H)-naphthalenone, monohydrochloride] was 243 to 246 °C. Take `COc1ccccc1N1CCN(C(=O)C2CC(=O)c3ccccc3C2)CC1` (centres unmarked) (as salt: hydrochloride) [Example 25, 3,4-Dihydro-3-[[4-(2-methoxyphenyl)-1-piperazinyl]-carbonyl]-1(2H)-naphthalenone, monohydrochloride]: the melting point fell in the range of 197 to 199 °C. Then `O=C1CC(CN2CCN(C(c3ccccc3)c3ccc(Cl)cc3)CC2)Cc2cc(F)ccc21` (centres unmarked) (as salt: hydrochloride) [Example 27, 3-[[4-[(4-Chlorophenyl)phenylmethyl]-1-piperazinyl]methyl]-6-fluoro-3,4-dihydro-1(2H)-naphthalenone, dihydrochloride], with 211 to 212 °C; and `COc1ccc(C(C(=O)NC2CCN(CCc3ccccc3)CC2)c2ccc(OC)cc2)cc1` (as salt: hydrochloride) [Example 29, 4-Methoxy-α-(4methoxyphenyl)-N-[1-(2-phenylethyl)-4-piperidinyl]benzeneacetamide, monohydrochloride], with 180 to 182 °C. Then `O=C(NC1CCN(CCc2ccccc2)CC1)C(c1ccccc1)c1ccccc1` (as salt: hydrochloride) [Example 30, α-Phenyl-N-[1-(phenylethyl)-4-piperidinyl]-benzeneacetamide, monohydrochloride], with 263 to 264 °C. In the case of `O=C1c2ccc(Cl)cc2CN1C1CCN(Cc2ccccc2)CC1` (as salt: hydrochloride) [Example 31, 5-Chloro-2,3-dihydro-2-[1-(phenylmethyl)-4-piperidinyl]-1H-isoindol-1-one, monohydrochloride], the melting point was in the range of 269 to 271 °C. Then `CCCCC(=CCN1CCC(N2Cc3ccccc3C2=O)CC1)CCCC` (as salt: hydrochloride) [Example 32, 2-[1-(3-Butyl-2-heptenyl)-4-piperidinyl]-2,3-dihydro-1H-isoindol-1-one, monohydrochloride], with 147 to 152 °C.

In turn, `O=C1c2ccccc2CN1C1CCN(C/C=C/CC(c2ccccc2)c2ccccc2)CC1` (as salt: hydrochloride) [Example 33, 2-[1-(5,5-Diphenyl-2-pentenyl)-4-piperidinyl]-2,3-dihydro-1H-isoindol-1-one, monohydrochloride] gave a melting point of 127 to 134 °C. As to `O=C1c2ccccc2CN1C1CCN(CCCc2ccccc2Oc2ccccc2)CC1` (as salt: hydrochloride) [Example 34, 2,3-Dihydro-2-[1-[3-(2-phenoxyphenyl)propyl]-4-piperidinyl]-1H-isoindol-1-one, monohydrochloride], the melting point fell in the range of 199 to 202 °C.

`O=C1c2ccccc2CN1C1CCN(C(c2ccccc2)c2ccccc2)CC1` (as salt: hydrochloride) [Example 35, 2,3-Dihydro-2-[1-(diphenylmethyl)-4-piperidinyl]-1H-isoindol-1-one, monohydrochloride] yielded a melting point of 165 to 169 °C. As for `O=C1c2ccccc2CN1C1CCN(C/C=C\CC(c2ccccc2)c2ccccc2)CC1` (as salt: hydrochloride) [Example 36, (Z)-2,3-Dihydro-2-[1-(5,5-diphenyl-2-pentenyl)-4-piperidinyl]-1H-isoindol-1-one, monohydrochloride], the melting point fell in the range of 174 to 177 °C. Then `COc1ccccc1C(=O)NC1CCN(CCC(c2ccccc2)c2ccccc2)CC1` (as salt: hydrochloride) [Example 38, N-[1-(3,3-Diphenylpropyl)-4-piperidinyl]-2-methoxybenzamide, monohydrochloride], with 170 to 172 °C; and `O=C(NC1CCN(CCC(c2ccccc2)c2ccccc2)CC1)c1ccccn1` (as salt: hydrochloride) [Example 40, N-[1-(3,3-Diphenylpropyl)-4-piperidinyl]-2-pyridineamide, monohydrochloride], with 109 to 116 °C. Then `CC(=O)N(Cc1ccccc1)C1CCN(CCC(c2ccccc2)c2ccccc2)CC1` (as salt: hydrochloride) [Example 41, N-[1-(3,3-Diphenylpropyl)-4-piperidinyl]-N-(phenylmethyl)acetamide, monohydrochloride], with 102 to 105 °C; and `O=C(c1ccccc1)N(Cc1ccccc1)C1CCN(CCC(c2ccccc2)c2ccccc2)CC1` (as salt: hydrochloride) [Example 42, N-[1-(3,3-Diphenylpropyl)-4-piperidinyl]-N-(phenylmethyl)benzamide, monohydrochloride], with 115 to 120 °C; and `COc1ccccc1N1CCN(CC2CC(=O)c3ccc(F)cc3C2)CC1` (centres unmarked) [Example 22, 6-Fluoro-3,4-dihydro-3-[[4-(2-methoxyphenyl)-1-piperazinyl]-methyl]-1(2H)-naphthalenone], with 111 to 113 °C. Consider `O=C(Cc1c[nH]c2ccccc12)NC1CCN(Cc2ccccc2)CC1` [Example 28, N-[1-(Phenylmethyl)-4-piperidinyl]-1H-indole-3-acetamide], for which the melting point lay in the range of 153 to 154 °C.

The melting point is the temperature, or range, at which the solid turns liquid.
